Experimental data published in patent US20080318987A1, “METHODS FOR MODULATING BONE FORMATION AND MINERALIZATION” (priority 2007, published 2008).

Assays:
WWP1 = molecular target: T1, WWP1 (Mus musculus, UniProt Q8BZZ3); test: OSE2 (osteocalcin) luciferase reporter assay, primary screen; assay type: cell-based, murine
T1 construct: The LKO.1 lentiviral vectors expressing RNAi against murine WWP1; endogenous in cells; host or cells: C3H10T1/2 (murine mesenchymal stem cell line)
Experimental: A cell-based reporter assay was modified for use as a primary screen. It is based on the inhibition by WWPI of Runx2 activation of a target promoter sequence from the osteocalcin gene. The murine mesenchymal stem cell line, C3H10T1/2 was maintained in DMEM+10% FBS. Cells were seeded overnight in a 12-wlel dish at 8×10^4 cells/well and transfected with the multimerized osteocalcin (OSE) luciferase (6×OSE2) reporter gene plasmid and combinations of expression constructs, as indicated, by Effectene (Qiagen). Total amounts of transfected DNA were kept constant by supplementing with control empty expression vector plasmids. All cells were cotransfected with pRL-TK (Promega) to control for transfection efficience. Forty-eight hours after transfection, cells were harvested and lysed in 1×Passive Lysis Buffer (Promega) and luciferase assays performed using the Dual-Luciferase Reporter Assay System (Promega).
Runx2 transactivation function in luciferase reporter assays was enhanced in WWPli cells. The LKO.1 lentiviral vectors expressing RNAi against murine WWP1, and GFP were cotransfected along with D8.9 and VSV-G plasmids into […] cells utilizing Effectene (Qiagen).

[1] = test system: primary human mesenchymal stem cells (MSCs); test: Human osteoblast differentiation in vitro (mineralization); assay type: cell-based; details: compound included in the MSC osteoblast differentiation culture system
Experimental: This cell-based assay uses a 96-well format in which primary human mesenchymal stem cells (MSCs) are differentiated into osteoblasts following an established protocol that results in a high rate of differentiation. To induce osteoblast differentiation, MSC are seeded at a low density (3.1×10^3 cells per cm2) and cultured in media containing β-glycerolphosphate and ascorbic acid for fourteen days. For testing of candidate compounds, MSCs will be differentiated in the presence of the compounds for the duration of the 14-day culture period. Osteoblast differentiation is then assayed via a simple colorometric readout that reflects the levels of cellular alkaline phosphates (ALP), an enzyme present in differentiating osteoblasts but absent in MSCs. ALP levels are then normalized to cell number, which is measured by utilizing the Alamar blue assay. Mineralization can be assessed by staining with xylenol orange. The screen and the 96-well format will allow multiple compounds to be tested at various concentrations. A substantial number of compounds may be identified that are active at a nanomolar concentration.

T1 sequence (Q8BZZ3 whole entry): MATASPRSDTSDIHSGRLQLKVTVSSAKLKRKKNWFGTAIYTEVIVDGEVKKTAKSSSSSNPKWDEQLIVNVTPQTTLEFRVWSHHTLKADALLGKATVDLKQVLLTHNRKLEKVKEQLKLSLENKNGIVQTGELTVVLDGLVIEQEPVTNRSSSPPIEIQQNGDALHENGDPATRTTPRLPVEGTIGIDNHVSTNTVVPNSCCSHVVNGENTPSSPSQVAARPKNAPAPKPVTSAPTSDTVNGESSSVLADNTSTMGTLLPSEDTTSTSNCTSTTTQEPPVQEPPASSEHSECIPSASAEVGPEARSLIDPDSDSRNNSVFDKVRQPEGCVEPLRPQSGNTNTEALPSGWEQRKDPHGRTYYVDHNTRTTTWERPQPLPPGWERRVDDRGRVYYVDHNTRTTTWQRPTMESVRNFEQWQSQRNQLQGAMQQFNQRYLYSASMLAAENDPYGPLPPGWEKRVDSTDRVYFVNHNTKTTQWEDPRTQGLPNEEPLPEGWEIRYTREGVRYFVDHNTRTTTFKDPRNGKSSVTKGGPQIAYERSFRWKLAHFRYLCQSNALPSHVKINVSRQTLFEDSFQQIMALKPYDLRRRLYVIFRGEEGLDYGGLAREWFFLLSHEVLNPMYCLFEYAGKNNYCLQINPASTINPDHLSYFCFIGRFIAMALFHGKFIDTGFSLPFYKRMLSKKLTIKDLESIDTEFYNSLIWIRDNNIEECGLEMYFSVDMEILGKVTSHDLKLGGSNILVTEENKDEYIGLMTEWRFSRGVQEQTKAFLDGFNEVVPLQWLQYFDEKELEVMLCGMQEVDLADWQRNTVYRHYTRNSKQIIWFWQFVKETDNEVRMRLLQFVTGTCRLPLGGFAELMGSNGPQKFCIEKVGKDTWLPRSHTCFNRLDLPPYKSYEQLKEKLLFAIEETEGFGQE

`O=c1[nH]cc(CS(=O)(=O)Cc2c[nH]c(=O)[nH]c2=O)c(=O)[nH]1` [5,5′-(sulfonyldimethylene)diuracil] was tested, and the “Runx2 transactivation in the OSE2 reporter assay” value (WWP1; C3H10T1/2 cells, 6xOSE2 luciferase reporter) was “increase Runx2 transactivation”, the “WWP1 inhibition inferred from the OSE2 reporter assay” value (WWP1; concluded from increased Runx2 transactivation) was “inhibit WWP1” and the “formation of mineralized nodules” value [1] was “substantially increased formation of mineralized nodules”.
